TGI data for eight compounds are collected here from PubChem BioAssay (NCI).

Some test systems named below: NCI-H226 lung; OVCAR-3 ovarian; SW-620 colon; 786-0 renal; T-47D breast; COLO 205 colon; RPMI-8226 leukemia; K-562 leukemia; NCI-H460 lung; MCF7 breast; MOLT-4 leukemia; SK-OV-3 ovarian; IGROV1 ovarian; OVCAR-5 ovarian; UACC-62 melanoma; SF-268 CNS; NCI/ADR-RES ovarian; HL-60(TB) leukemia; CCRF-CEM leukemia; SR leukemia.
What all share (test): NCI tumour cell line growth inhibition, 48 h

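Tested at 5 concentrations; 48 h exposure; 96-well plates; endpoints linearly interpolated, else capped at highest concentration. TGI: total growth inhibition.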

In the case of `Nc1ccc(S(=O)(=O)c2ccc(NC(=O)c3cccnc3)cc2)cc1`, the TGI in the experiment with NCI-H226 lung, in the experiment on OVCAR-3 ovarian, in the experiment on SW-620 colon, in the experiment on 786-0 renal, in the experiment with T-47D breast and with COLO 205 colon was > 100 µM throughout. For the same compound, the TGI in the experiment on RPMI-8226 leukemia, in the experiment with K-562 leukemia, with NCI-H460 lung, in the experiment on MCF7 breast, in the experiment on MOLT-4 leukemia and with SK-OV-3 ovarian was > 100 µM throughout. Further, the TGI in the experiment on IGROV1 ovarian, in the experiment on OVCAR-5 ovarian, with UACC-62 melanoma, in the experiment with SF-268 CNS, in the experiment on NCI/ADR-RES ovarian and with HL-60(TB) leukemia was > 100 µM throughout.

For the compound `Cc1ccc(NC(=O)CC(=O)n2nc(C)c(N=Nc3ccc(S(=O)(=O)CCOS(=O)(=O)O)cc3)c2C)cc1`, the TGI in the experiment on NCI-H226 lung, with OVCAR-3 ovarian, in the experiment on SW-620 colon, in the experiment with 786-0 renal, in the experiment on T-47D breast and in the experiment on COLO 205 colon was > 100 µM each time. Further, the TGI in the experiment with RPMI-8226 leukemia, with K-562 leukemia, in the experiment with NCI-H460 lung, with CCRF-CEM leukemia, with MCF7 breast and with MOLT-4 leukemia was > 100 µM throughout. The TGI with SK-OV-3 ovarian, with IGROV1 ovarian, in the experiment on OVCAR-5 ovarian, with UACC-62 melanoma, in the experiment on SF-268 CNS and with NCI/ADR-RES ovarian was > 100 µM throughout. In addition, in the experiment with HL-60(TB) leukemia, the TGI is > 100 µM.

`CN(/N=C/c1cccs1)c1ccc([N+](=O)[O-])cc1[N+](=O)[O-]`: the TGI in the experiment with OVCAR-3 ovarian, in the experiment with SW-620 colon, with SR leukemia, in the experiment on 786-0 renal, in the experiment with T-47D breast and in the experiment with COLO 205 colon was > 100 µM each time. Further, the TGI in the experiment on RPMI-8226 leukemia, in the experiment on K-562 leukemia, in the experiment with NCI-H460 lung, in the experiment with CCRF-CEM leukemia, with MCF7 breast and in the experiment on MOLT-4 leukemia was > 100 µM each time. Besides, the TGI with SK-OV-3 ovarian, with IGROV1 ovarian, in the experiment on UACC-62 melanoma, in the experiment on SF-268 CNS, in the experiment with NCI/ADR-RES ovarian and in the experiment on HL-60(TB) leukemia was > 100 µM throughout.

Regarding `COc1ccc(C2NC3=C(CCCC3)C3(C#N)C(=O)N=C(N)C23C#N)cc1` (stereo unspecified), the TGI with NCI-H226 lung, with SW-620 colon, in the experiment with 786-0 renal, in the experiment with T-47D breast, in the experiment on COLO 205 colon and in the experiment on RPMI-8226 leukemia was > 100 µM in each case. Moreover, the TGI with K-562 leukemia is > 100 µM; in the experiment on NCI-H460 lung, > 100 µM; in the experiment with CCRF-CEM leukemia, 91.9 µM; with MCF7 breast, > 100 µM; in the experiment with MOLT-4 leukemia, > 100 µM; in the experiment on SK-OV-3 ovarian, > 100 µM. Further, the TGI in the experiment on IGROV1 ovarian, in the experiment on OVCAR-5 ovarian, in the experiment on UACC-62 melanoma, in the experiment with SF-268 CNS, with NCI/ADR-RES ovarian and with HL-60(TB) leukemia was > 100 µM throughout.

For the compound `N#Cc1ccc(OCc2ccc3nc(-c4ccccc4)c(Cl)nc3c2)cc1`, the TGI in the experiment on OVCAR-3 ovarian, with SW-620 colon, in the experiment on SR leukemia, in the experiment with 786-0 renal, in the experiment with T-47D breast and in the experiment with COLO 205 colon was > 100 µM throughout. Also, the TGI with RPMI-8226 leukemia, with NCI-H460 lung, with CCRF-CEM leukemia, in the experiment with MCF7 breast, with MOLT-4 leukemia and with IGROV1 ovarian was > 100 µM each time. Further, the TGI in the experiment with OVCAR-5 ovarian, in the experiment on UACC-62 melanoma, with SF-268 CNS, in the experiment with NCI/ADR-RES ovarian and in the experiment with HL-60(TB) leukemia was > 100 µM throughout.

As for `CCCCCCCCCCCC1N=C(N)NC(CCCO)=C1C(=O)OC` (stereo unspecified), the TGI with NCI-H226 lung was 32 µM; with OVCAR-3 ovarian, 9.08 µM; in the experiment with SR leukemia it was > 100 µM; in the experiment on T-47D breast, 17.5 µM; in the experiment with RPMI-8226 leukemia, 4.78 µM; in the experiment with K-562 leukemia, 4.49 µM. The TGI came to 3.79 µM with CCRF-CEM leukemia; 4.75 µM with MOLT-4 leukemia; 8.12 µM with SK-OV-3 ovarian; 4.73 µM in the experiment with IGROV1 ovarian; 16.6 µM with OVCAR-5 ovarian; 21.5 µM with UACC-62 melanoma. Also, the TGI in the experiment on SF-268 CNS is 5.81 µM; with NCI/ADR-RES ovarian, 49.5 µM; in the experiment on HL-60(TB) leukemia it was 2.81 µM.

Turning to `N#Cc1c2c([nH]c(=O)c1C#N)CCCC2`, the TGI in the experiment with NCI-H226 lung, in the experiment with OVCAR-3 ovarian, in the experiment with SW-620 colon, with 786-0 renal, in the experiment on T-47D breast and with COLO 205 colon was > 100 µM throughout. The TGI in the experiment with K-562 leukemia, in the experiment on NCI-H460 lung, in the experiment on CCRF-CEM leukemia, in the experiment with MCF7 breast, with MOLT-4 leukemia and in the experiment with SK-OV-3 ovarian was > 100 µM in each case. Also, the TGI in the experiment with IGROV1 ovarian, in the experiment on OVCAR-5 ovarian, in the experiment with UACC-62 melanoma, in the experiment on SF-268 CNS, in the experiment with NCI/ADR-RES ovarian and in the experiment with HL-60(TB) leukemia was > 100 µM in each case.

Turning to `O=C1C(=O)N(C2CCCCC2)C(=S)N1C1CCCCC1`, the TGI in the experiment on NCI-H226 lung, in the experiment on SW-620 colon, in the experiment on SR leukemia, in the experiment with 786-0 renal, in the experiment on T-47D breast and in the experiment with COLO 205 colon was > 100 µM throughout. For the same compound, the TGI in the experiment with RPMI-8226 leukemia, with K-562 leukemia, in the experiment with NCI-H460 lung, in the experiment on CCRF-CEM leukemia, with MOLT-4 leukemia and with SK-OV-3 ovarian was > 100 µM in each case. In addition, the TGI in the experiment with IGROV1 ovarian, in the experiment with OVCAR-5 ovarian, in the experiment on UACC-62 melanoma, in the experiment with SF-268 CNS, in the experiment with NCI/ADR-RES ovarian and in the experiment with HL-60(TB) leukemia was > 100 µM in each case.
